Assay results published in patent publication US5717095A, “Nucleotide analogs” (Gilead Sciences, Inc., priority 1996, dated 1998).
“Also recorded” adds a separate entry of the source. Like-named read-outs stand apart in the source and are kept apart here.

Experiments:
HSV-2 (strain 414-92) = assay: Inhibition of HSV-2 mediated cell killing in MA 104 cells (crystal violet); type: cell-based; settings: Human alphaherpesvirus 2, MA104, 72 h, read-out: HSV-2 IC50, concentration that inhibits cell killing mediated by HSV-2 by 50%
Description: (§1) Compounds were individually tested for activity against HSV-1 and/or HSV-2. HSV-2 (strain 414-92) was tested using MA 104 cells in the following assay protocol. 96-Well plates were seeded with 1×10^4 MA 104 cells per well using 200 μL minimal essential medium (MEM) containing 10% calf serum per well, and incubated overnight at 37° C. The compounds were dissolved in MEM Earle's Salts without serum. The medium was removed by aspiration and 100 μL MEM Earle's Salts without serum was added to the wells. Serial 3-fold dilutions of the compounds were prepared by serial transfer of 50 μL of medium from wells containing compound to wells lacking compound. The plates were incubated 15 minutes at 37° C. followed by addition of 100 PFU/well of virus in MEM Earle's Salts with 2% fetal bovine serum. The plates were then incubated at 37° C. for three days until approximately 90% of the cells in virus infected control wells containing no compound were killed. Following incubation, medium was aspirated and the wells were washed with sterile PBS. 100 μL 0.5% crystal violet in 20% methanol was then added to the wells for 5 minutes, aspirated and the wells were washed two or three times with distilled water. 200 μL of 0.01 N HCl was added to the wells and the absorbance of each well at 595 nm was determined. The results, shown in Table 6, were expressed as the IC50, the concentration (μM) that inhibits cell killing mediated by HSV-2 by 50%. […] The toxicity of the compounds were expressed as the CC50, the concentration that kills 50% of uninfected cells.

[1] = Toxicity to uninfected MA 104 cells; type: cell-based; settings: monkey, read-out: CC50, concentration that kills 50% of uninfected cells
KOS strain of HSV-1 = assay: Activity against KOS strain of HSV-1 in VERO cells; type: cell-based; settings: read-out: HSV-1 EC50, concentration that inhibits cell killing by 50%
Description: The compounds were also tested for activity against the KOS strain of HSV-1 in VERO cells. The results, shown in Table 7, were expressed as the EC50, the concentration (μM) that inhibits cell killing mediated by HSV-2 by 50%.

HSV II = assay: Inhibition of cytopathic effects by HSV II in MA 104 cells (XTT); type: cell-based, HSV-2; settings: for IC50: Human alphaherpesvirus 2, MA104
Description: as §1, with “100 μL 0.5% crystal violet in 20% methanol was then added to the wells for 5 minutes, aspirated and the wells were washed two or three times with distilled water. 200 μL of 0.01 N HCl was added to the wells and the absorbance of each well at 595 nm was determined.” left out

[2] = Conversion in rat intestinal homogenate; type: in vitro ADME
Text: (§2) The cHPMPC pivaloyloxymethyl ester synthesis yields a racemic mixture at the phosphorus atom. The mixture was separated by HPLC into the two isomers which were then exposed to an rat intestinal homogenate or to a rat intestinal wash.

[3] = Conversion in rat intestinal wash; type: in vitro ADME; settings: both phosphorus isomers
Text: as §2

[4] = tested on: herpes simplex virus, type 1 or 2 (HSV-1 and -2); settings: cited from earlier work
[5] = tested on: varicella zoster virus (VZV); settings: cited from earlier work
adenovirus = settings: cited from earlier work
vaccinia virus = settings: cited from earlier work
in vitro = type: cell-based; settings: monkey, ma 104 cells
Description: Compounds were individually tested for activity against HSV-1 and/or HSV-2. HSV-2 (strain 414-92) was tested using MA 104 cells in the following assay protocol. 96-Well plates were seeded with 1×10^4 MA 104 cells per well using 200 μL minimal essential medium (MEM) containing 10% calf serum per well, and incubated overnight at 37° C. The compounds were dissolved in MEM Earle's Salts without serum. The medium was removed by aspiration and 100 μL MEM Earle's Salts without serum was added to the wells. Serial 3-fold dilutions of the compounds were prepared by serial transfer of 50 μL of medium from wells containing compound to wells lacking compound. The plates were incubated 15 minutes at 37° C. followed by addition of 100 PFU/well of virus in MEM Earle's Salts with 2% fetal bovine serum. The plates were then incubated at 37° C. for three days until approximately 90% of the cells in virus infected control wells containing no compound were killed. Following incubation, medium was aspirated and the wells were washed with sterile PBS. 100 μL 0.5% crystal violet in 20% methanol was then added to the wells for 5 minutes, aspirated and the wells were washed two or three times with distilled water. 200 μL of 0.01 N HCl was added to the wells and the absorbance of each well at 595 nm was determined. […]

[6] = rhesus monkey, in vivo; cited from earlier work
HCMV [7] = assay: Activity against HCMV in tissue culture (NHDF cell line); type: cell-based; settings: Human betaherpesvirus 5
Text: The title compound was synthesized using N^4 -benzoyl HPMPC diethyl ester tritylated at the hydroxyl group as a starting material. The starting material was detritylated using acetic acid and then converted to N^4 -benzoyl HPMPC using TMSBr. The resulting compound was converted to N^4 -benzoyl cHPMPC using DCC and morpholine in pyridine.

[8] = tested on: human cytomegalovirus (HCMV); settings: in both humans and animals; cited from earlier work
[9] = tested on: thymidine kinase-deficient (TK^-) mutants of herpes simplex virus; settings: TK^- HSV mutants; cited from earlier work
HCMV [10] = settings: cited from earlier work
[11] = tested on: phocid herpesvirus type 1 (seal herpesvirus, SeHV); settings: cited from earlier work
[12] = tested on: simian herpesvirus type 1 (SHV-1), or pseudorabies virus or Aujeszky's disease virus; settings: SHV-1 / pseudorabies virus; cited from earlier work
[13] = tested on: bovid herpesvirus type 1 (infectious bovine rhinotracheitis virus, BHV-1); settings: cited from earlier work
[14] = tested on: equid herpesvirus type 1 (equine abortion virus, EHV-1); settings: cited from earlier work
[15] = tested on: African swine fever (ASF) virus; settings: cited from earlier work
[16] = tested on: retroviruses such as murine sarcoma virus (MSV); settings: cited from earlier work
[17] = tested on: herpes simplex virus type 1; settings: mice and rabbits, local and systemic HSV-1 infections, including herpetic keratitis caused by acyclovir-type-drug-resistant TK^- mutant; cited from earlier work
in vivo = settings: rhesus monkey, po
[18] = MA 104 cells, HSV-2 strain 414-92, three days
[19] = Human alphaherpesvirus 1, KOS strain of HSV-1, VERO cells

CC(C)(C)OC(=O)CNP(=O)(COCCn1cnc2c(N)ncnc21)NCC(=O)OC(C)(C)C [Ex 11]
IC50 (HSV-2 (strain 414-92); [18]): > 100 µM | CC50 at 72 h [1]: > 100 µM | EC50 (KOS strain of HSV-1; [19]): > 200 µM

Nc1ncnc2c1ncn2CCOCP(=O)(Oc1ccccc1)Oc1ccccc1 [bis(phenyl)PMEA, Bis(phenyl)PMEA]
activity (inhibition of cytopathic effects) (HSV II): active

Nc1ncnc2c1ncn2CCOCP(=O)(O)Oc1ccccc1 [monophenylPMEA, monophenyl ester of PMEA]
activity (inhibition of cytopathic effects) (HSV II): active

CCOC(=O)C(C)NP(=O)(COCCn1cnc2c(N)ncnc21)NC(C)C(=O)OCC (centres unmarked) [Ex 5]
IC50 (HSV-2 (strain 414-92); [18]): > 100 µM | CC50 at 72 h [1]: > 100 µM

CCOC(=O)c1ccccc1OP(=O)(COCCn1cnc2c(N)ncnc21)Oc1ccccc1C(=O)OCC
activity (inhibition of cytopathic effects) (HSV II): active

CCOC(=O)C(Cc1ccccc1)NP(=O)(COCCn1cnc2c(N)ncnc21)NC(Cc1ccccc1)C(=O)OCC (centres unmarked) [Ex 12]
IC50 (HSV-2 (strain 414-92); [18]): 20 µM | CC50 at 72 h [1]: 80 µM

CN(C)c1cccc(OP(=O)(COCCn2cnc3c(N)ncnc32)Oc2cccc(N(C)C)c2)c1 [bis(3-dimethylaminophenyl)PMEA]
activity (inhibition of cytopathic effects) (HSV II): active

CC(C)(C)C(=O)OCOP1(=O)CO[C@@H](Cn2ccc(N)nc2=O)CO1 (some centres unmarked) [cHPMPC pivaloyloxymethyl ester]
metabolic conversion in homogenate ([2]; one of the two phosphorus isomers): converted to cHPMPC | metabolic conversion in homogenate ([2]; the other phosphorus isomer): converted to HPMPC pivaloyloxymethyl monoester | conversion in intestinal wash [3]: converted to HPMPC pivaloyloxymethyl monoester

Nc1ncnc2c1ncn2C[C@H]1COP(=O)(O)CO1 [(S)-cyclic HPMPA]
antiviral activity [4]: active | antiviral activity [5]: active | antiviral activity (adenovirus): active | antiviral activity (vaccinia virus): active

CCOc1ccccc1OP(=O)(COCCn1cnc2c(N)ncnc21)Oc1ccccc1OCC [bis(2-ethoxyphenyl)PMEA, Bis(2-ethoxyphenyl)PMEA]
activity (inhibition of cytopathic effects) (HSV II): active

Nc1ncnc2c1ncn2CCOCP(=O)(O)O [PMEA, reference compound]
IC50 (HSV-2 (strain 414-92)): 21 µM | EC50 (KOS strain of HSV-1; Human alphaherpesvirus 1, Vero): 138 µM | IC50 (HSV II): 19.3 µM | CC50 (in vitro): 2000 µM | Oral bioavailability [6]: 2-4%

Nc1nc2c(ncn2C[C@@H](CO)OCP(=O)(O)O)c(=O)[nH]1 [(S)-HPMPG]
antiviral activity [4]: active

CC(C)CC(NP(=O)(COCCn1cnc2c(N)ncnc21)NC(CC(C)C)C(=O)OC(C)(C)C)C(=O)OC(C)(C)C (centres unmarked) [Ex 9]
IC50 (HSV-2 (strain 414-92); [18]): 63 µM | CC50 at 72 h [1]: > 100 µM | EC50 (KOS strain of HSV-1; [19]): 63 µM

CC(NP(=O)(COCCn1cnc2c(N)ncnc21)NC(C)C(=O)OC(C)(C)C)C(=O)OC(C)(C)C (centres unmarked) [Ex 10]
IC50 (HSV-2 (strain 414-92); [18]): > 100 µM | CC50 at 72 h [1]: > 100 µM | EC50 (KOS strain of HSV-1; [19]): > 200 µM

Nc1ncnc2c1ncn2CCOCP(=O)(OCOC(=O)C12CC3CC(CC(C3)C1)C2)OCOC(=O)C12CC3CC(CC(C3)C1)C2 [bis(adamantoyl oxymethyl)PMEA, bis(adamantoyl oxymethyl)PMEA ester]
activity (inhibition of cytopathic effects) (HSV II): active

Nc1ncnc2c1ncn2CCOCP(=O)(NCC(=O)OCc1ccccc1)NCC(=O)OCc1ccccc1 [Ex 4, bis(glycyl benzyl ester)PMEA]
IC50 (HSV-2 (strain 414-92); [18]): 60 µM | CC50 at 72 h [1]: > 100 µM

CCOC(=O)C(CC(C)C)NP(=O)(COCCn1cnc2c(N)ncnc21)NC(CC(C)C)C(=O)OCC (centres unmarked) [Ex 6]
IC50 (HSV-2 (strain 414-92); [18]): 33 µM | CC50 at 72 h [1]: > 100 µM | EC50 (KOS strain of HSV-1; [19]): 20 µM

CCOC(=O)CNP(=O)(COCCn1cnc2c(N)ncnc21)NCC(=O)OCC [Ex 7]
IC50 (HSV-2 (strain 414-92); [18]): > 100 µM | CC50 at 72 h [1]: > 100 µM | EC50 (KOS strain of HSV-1; [19]): > 200 µM

Nc1nc(N)c2ncn(C[C@@H](CO)OCP(=O)(O)O)c2n1 [(S)-HPMPDAP]
antiviral activity [4]: active

Nc1ncnc2c1ncn2CCOCP(=O)(Oc1ccc(F)cc1)Oc1ccc(F)cc1 [bis(4-fluorophenyl)PMEA]
activity (inhibition of cytopathic effects) (HSV II): active

COc1cccc(OP(=O)(COCCn2cnc3c(N)ncnc32)Oc2cccc(OC)c2)c1 [bis(3-methoxyphenyl)PMEA]
activity (inhibition of cytopathic effects) (HSV II): active

Nc1ccn(C[C@@H](CO)OCP(=O)(O)O)c(=O)n1 [HPMPC]
IC50 (HCMV [7]): 0.4 µM | antiviral activity [4]: active | antiviral activity [8]: active

Nc1ncnc2c1ncn2C[C@@H](CO)OCP(=O)(O)O [(S)-HPMPA]
antiviral activity [4]: active; also recorded: potent and selective activity | antiviral activity [5]: active; also recorded: potent and selective activity | antiviral activity (adenovirus): active; also recorded: potent and selective activity | antiviral activity (vaccinia virus): active; also recorded: potent and selective activity | antiviral activity [9]: potent and selective activity | antiviral activity (HCMV [10]): potent and selective activity | antiviral activity [11]: potent and selective activity | antiviral activity [12]: potent and selective activity | antiviral activity [13]: potent and selective activity | antiviral activity [14]: potent and selective activity | antiviral activity [15]: potent and selective activity | antiviral activity [16]: potent and selective activity | in vivo antiviral effect [17]: effective

CC(NP(=O)(COCCn1cnc2c(N)ncnc21)NC(C)C(=O)OCc1ccccc1)C(=O)OCc1ccccc1 (centres unmarked) [Ex 1, bis(alanyl benzyl ester)PMEA]
IC50 (HSV-2 (strain 414-92); [18]): 20 µM | CC50 at 72 h [1]: > 100 µM

Nc1ncnc2c1ncn2CCOCP(=O)(NC(Cc1ccccc1)C(=O)OCc1ccccc1)NC(Cc1ccccc1)C(=O)OCc1ccccc1 (centres unmarked) [Ex 2]
IC50 (HSV-2 (strain 414-92); [18]): 4 µM | CC50 at 72 h [1]: 20 µM

CC(C)(C)C(=O)OCOP(=O)(COCCn1cnc2c(N)ncnc21)OCOC(=O)C(C)(C)C [bis(POM)PMEA, reference compound]
activity (inhibition of cytopathic effects) (HSV II): active | IC50 (HSV II): 0.5 µM | CC50 (in vitro): > 10 µM | bioavailability (in vivo): ~25%

O=C(Nc1ccn(C[C@H]2COP(=O)(O)CO2)c(=O)n1)c1ccccc1 [N^4 -benzoyl cHPMPC]
IC50 (HCMV [7]): 22 µM
